Data: patent US8835458B2 (Hanmi Science Co., Ltd, priority 2010, dated 2014)
Where a name gives a salt, the structure may show the parent alone. Read-outs that look alike come from different tables or passages of the source.

Legend:
[1] = Toxicity to normal cells (SRB); assay type: cell-based, mouse; conditions: mouse, Balb/c3t3 fibroblasts (normal cell line), read-out: BalB/C (GI50)
Description: MDA-MB-231 breast cancer cell lines (ATCC #HTB-26) and BxPC-3 pancreas cancer cell lines (ATCC #CRL 1687), which have been reported to express XIAP, were obtained from ATCC (American type culture collection; Rockville, Md.). MDA-MB-231 cell lines were incubated in L-15 medium supplemented with 10% FBS and 1% penicillin/streptomycin (Gibco BRL) at a T-75 cm^2 growth flask. In addition, BxPC-3 cell lines were incubated in RPMI medium supplemented with 10% FBS and 1% penicillin/streptomycin. For experiments of toxicity to normal cells, fibroblasts Hs27 (ATCC #CRL 1634) and Balb/c3t3 (ATCC #CCL 163) were used. The various cell lines were transferred into 96-well plates at a density of 3,000˜5,000 cells/100 μL, and cultured for 24 hours under conditions of 37° C., 5% CO2, 95% air, and 100% relative humidity (MDA-MB-231 cells were cultured under atmospheric conditions). The cells were treated with 10 μM˜0.1 nM of test compounds, and MDA-MB-231, BxPC-3, and normal cell lines were cultured for 120, 96, and 72 hours, respectively.
Cell viabilities of MDA-MB-231 cell lines were measured at an absorbance of 490 nm using CellTiter 96™ AQueous One Solution Cell proliferation Assay (MTS, Promega), and cell viabilities of BxPC-3 and normal cell lines were measured by fixing cells with 10% TCA (trichloroacetic acid), staining with SRB (sulforhodamine B), and measuring at 540 nm. From the values, GI50 values in which test compounds reduce the growth of cancer cells by 50% were calculated. The growth rates of cancer cells were calculated from following Equation 1 or 2. [(Ti−Tz)/(C−Tz)]×100 (for Ti>=Tz) [Equation 1] [(Ti−Tz)/Tz]×100 (for Ti<Tz) [Equation 2] In Equations 1 and 2, Tz refers to a density of untreated cells, which is an absorbance in 0% cell growth groups. C refers to a density of cells cultured by adding only medium, and Ti refers to a density of cells treated with test compounds.
GI50 value is the concentration of a test compound when the value of Equation 1 is 50, which indicates the concentration of test compound required to inhibit the cancer cells by 50%. On each measurement, test compounds were compared with a control.
The activity value of each compound (GI50 value) was shown in Table 5, and an IAP antagonist was used as a control.
In the activity measurement on MDA-MB-231 breast cancer cell lines, the values were represented as “***” for 100 nM or less, “**” for over 100 nM to below 1,000 nM, and “*” for 1,000 nM or more. In the measurement on normal cell lines, Balb/C and Hs27, the values were represented as “+++” for 10,000 nM or more, “++” for over 5,000 nM to below 10,000 nM, and “+” for 5,000 nM or less.

[2] = system: MDA-MB-231 breast cancer cell lines; experiment: Evaluation of inhibition on cell growth (MTS); assay type: cell-based; conditions: Homo sapiens, MDA-MB-231, 120 hours
Method in brief: (§1)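 Cells seeded at 3,000˜5,000 cells/100 μL, grown 24 h at 37° C (MDA-MB-231 under atmospheric conditions), then exposed to 10 μM˜0.1 nM compound. MDA-MB-231 cultured 120 h, read by MTS at 490 nm; fibroblasts cultured 72 h, TCA-fixed, SRB-stained, read at 540 nm. GI50 from growth relative to untreated and medium-only cells.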

[3] = Toxicity to normal cells (SRB); assay type: cell-based, human; conditions: human, Hs27 fibroblasts (normal cell line)
Method in brief: as §1

CN[C@@H](C)C(=O)N[C@H](C(=O)N1CC[C@H]1C(=O)Nc1cc2c(Nc3ccc(F)c(Cl)c3F)ncnc2cc1OC)C(C)(C)C [Example 20, (S)—N-(4-(3-chloro-2,4-difluorophenylamino)-7-methoxyquinazolin-6-yl)-1-((S)-3,3-dimethyl-2-((S)-2-(methylamino)propanamido)butanoyl)azetidine-2-carboxamide hydrochloride]
GI50 at 72 h [1]: > 10 µM | GI50 [2]: 100 to 1000 nM | GI50 at 72 h [3]: > 10 µM

COc1cc2ncnc(Nc3ccc(F)c(Cl)c3F)c2cc1NC(=O)[C@@H]1CCCN1C(=O)[C@@H](NC(=O)[C@H](C)N)C(C)(C)C [Example 12, (S)-1-((S)-2-((S)-2-aminopropanamido)-3,3-dimethylbutanoyl)-N-(4-(3-chloro-2,4-difluorophenylamino)-7-methoxyquinazolin-6-yl)pyrrolidine-2-carboxamide hydrochloride]
GI50 at 72 h [1]: > 10 µM | GI50 [2]: ≥ 1000 nM | GI50 at 72 h [3]: > 10 µM

CN[C@@H](C)C(=O)N[C@H](C(=O)N1CCC[C@H]1C(=O)Nc1ccc2ncnc(Nc3ccc(F)c(Cl)c3F)c2c1)C(C)(C)C [Example 48, (S)—N-(4-(3-chloro-2,4-difluorophenylamino)quinazolin-6-yl)-1-((S)-3,3-dimethyl-2-((S)-2-(methylamino)propanamido)butanoyl)pyrrolidine-2-carboxamide]
GI50 at 72 h [1]: > 10 µM | GI50 [2]: ≤ 100 nM | GI50 at 72 h [3]: > 10 µM

C#CCO[C@H](C)[C@H](NC(=O)[C@H](C)NC)C(=O)N1CCC[C@H]1C(=O)Nc1cc2c(Nc3ccc(F)c(Cl)c3F)ncnc2cc1OC [Example 45, (S)—N-(4-(3-chloro-2,4-difluorophenylamino)-7-methoxyquinazolin-6-yl)-1-((2S,3R)-2-((S)-2-(methylamino)propanamido)-3-(prop-2-ynyloxy)butanoyl)pyrrolidine-2-carboxamide hydrochloride]
GI50 at 72 h [1]: > 10 µM | GI50 [2]: ≤ 100 nM | GI50 at 72 h [3]: > 10 µM

CN[C@@H](C)C(=O)N[C@H](C(=O)N1CCC[C@H]1C(=O)Nc1cc2c(N3CCCc4ccccc43)ncnc2cc1OC)C(C)(C)C [Example 50, (S)—N-(4-(3,4-dihydroquinoline-1(2H)-yl)-7-methoxyquinazolin-6-yl)-1-((S)-3,3-dimethyl-2-((S)-2-(methylamino)propanamido)butanoyl)pyrrolidine-2-carboxamide hydrochloride]
GI50 at 72 h [1]: > 10 µM | GI50 [2]: ≤ 100 nM | GI50 at 72 h [3]: > 10 µM

CN[C@@H](C)C(=O)N[C@H](C(=O)N1CCC[C@H]1C(=O)Nc1cc2c(N)ncnc2cc1OC)C(C)(C)C [Example 36, (S)—N-(4-amino-7-methoxyquinazolin-6-yl)-1-((S)-3,3-dimethyl-2-((S)-2-(methylamino)propanamido)butanoyl)pyrrolidine-2-carboxamide]
GI50 at 72 h [1]: > 10 µM | GI50 [2]: 100 to 1000 nM | GI50 at 72 h [3]: > 10 µM

CCN1CCN(c2ccc(Nc3ncnc4cc(OC)c(NC(=O)[C@@H]5CCCN5C(=O)[C@@H](NC(=O)[C@H](C)NC)C(C)(C)C)cc34)cc2C(F)(F)F)CC1 [Example 70, (S)-1-((S)-3,3-dimethyl-2-((S)-2-(methylamino)propanamido)butanoyl)-N-(4-(4-(4-ethylpiperazin-1-yl)-3-(trifluoromethyl)phenylamino)-7-methoxyquinazolin-6-yl)pyrrolidine-2-carboxamide dihydrochloride]
GI50 at 72 h [1]: > 10 µM | GI50 [2]: ≤ 100 nM | GI50 at 72 h [3]: > 10 µM

CN[C@@H](C)C(=O)N[C@H](C(=O)N1CCC[C@H]1C(=O)Nc1cc2c(Nc3ccc(F)c(Cl)c3)ncnc2cc1OCCOC)C(C)(C)C [Example 5, (S)—N-(4-(3-chloro-4-fluorophenylamino)-7-(2-methoxyethoxy)quinazolin-6-yl)-1-((S)-3,3-dimethyl-2-((S)-2-(methylamino)propanamido)butanoyl)pyrrolidine-2-carboxamide hydrochloride]
GI50 at 72 h [1]: > 10 µM | GI50 [2]: 100 to 1000 nM | GI50 at 72 h [3]: > 10 µM

CN[C@@H](C)C(=O)N[C@H](C(=O)N1CCC[C@H]1C(=O)Nc1cc2c(Nc3ccc(Cl)cc3)ncnc2cc1OC)C(C)(C)C [Example 56, (S)—N-(4-(4-chlorophenylamino)-7-methoxyquinazolin-6-yl)-1-((S)-3,3-dimethyl-2-((S)-2-(methylamino)propanamido)butanoyl)pyrrolidine-2-carboxamide]
GI50 at 72 h [1]: > 10 µM | GI50 [2]: ≤ 100 nM | GI50 at 72 h [3]: > 10 µM

CN[C@@H](C)C(=O)N[C@H](C(=O)N1CCC[C@H]1C(=O)Nc1cc2c(Nc3ccccn3)ncnc2cc1OC)C(C)(C)C [Example 33, (S)-1-((S)-3,3-dimethyl-2-((S)-2-(methylamino)propanamido)butanoyl)-N-(7-methoxy-4-(pyridin-2-ylamino)quinazolin-6-yl)pyrrolidine-2-carboxamide]
GI50 at 72 h [1]: > 10 µM | GI50 [2]: ≤ 100 nM | GI50 at 72 h [3]: > 10 µM

CN[C@@H](C)C(=O)N[C@H](C(=O)N1CCC[C@H]1C(=O)Nc1cc2c(Nc3ccc(F)c(Cl)c3F)ncnc2cc1OCCOC)C(C)(C)C [Example 6, (S)—N-(4-(3-chloro-2,4-difluorophenylamino)-7-(2-methoxyethoxy)quinazolin-6-yl)-1-((S)-3,3-dimethyl-2-((S)-2-(methylamino)propanamido)butanoyl)pyrrolidine-2-carboxamide hydrochloride]
GI50 at 72 h [1]: > 10 µM | GI50 [2]: 100 to 1000 nM | GI50 at 72 h [3]: > 10 µM

CN[C@@H](C)C(=O)N[C@H](C(=O)N1CCC[C@H]1C(=O)Nc1cc2c(Nc3ccc(F)c(Cl)c3F)ncnc2cc1O)C(C)(C)C [Example 43, (S)—N-(4-(3-chloro-2,4-difluorophenylamino)-7-hydroxyquinazolin-6-yl)-1-((S)-3,3-dimethyl-2-((S)-2-(methylamino)propanamido)butanoyl)pyrrolidine-2-carboxamide]
GI50 at 72 h [1]: > 10 µM | GI50 [2]: ≤ 100 nM | GI50 at 72 h [3]: > 10 µM

CCN1CCN(c2ccc(Nc3ncnc4cc(OC)c(NC(=O)[C@@H]5CCCN5C(=O)[C@@H](NC(=O)[C@H](C)NC)C(C)(C)C)cc34)cc2F)CC1 [Example 71, (S)-1-((S)-3,3-dimethyl-2-((S)-2-(methylamino)propanamido)butanoyl)-N-(4-(4-(4-ethylpiperazin-1-yl)-3-fluorophenylamino)-7-methoxyquinazolin-6-yl)pyrrolidine-2-carboxamide dihydrochloride]
GI50 at 72 h [1]: > 10 µM | GI50 [2]: ≤ 100 nM | GI50 at 72 h [3]: > 10 µM

CN[C@@H](C)C(=O)N[C@H](C(=O)N1CCC[C@H]1C(=O)Nc1cc2c(Nc3ccc(F)c(Cl)c3F)ncnc2cc1O[C@@H]1CCOC1)C(C)(C)C [Example 16, (S)—N-(4-(3-chloro-2,4-difluorophenylamino)-7-((R)-tetrahydrofuran-3-yloxy)quinazolin-6-yl)-1-((S)-3,3-dimethyl-2-((S)-2-(methylamino)propanamido)butanoyl)pyrrolidine-2-carboxamide hydrochloride]
GI50 at 72 h [1]: > 10 µM | GI50 [2]: 100 to 1000 nM | GI50 at 72 h [3]: > 10 µM

CN[C@@H](C)C(=O)N[C@H](C(=O)N1CCC[C@H]1C(=O)Nc1cc2c(Nc3cccc(Cl)c3F)ncnc2cc1OC)C(C)(C)C.Cl [Example 7, hydrochloride]
GI50 at 72 h [1]: > 10 µM | GI50 [2]: ≤ 100 nM | GI50 at 72 h [3]: > 10 µM

CN[C@@H](C)C(=O)N[C@H](C(=O)N1CCC[C@H]1C(=O)Nc1cc2c(Nc3ccc4[nH]ncc4c3)ncnc2cc1OC)C(C)(C)C [Example 54, (S)—N-(4-(1H-indazol-5-ylamino)-7-methoxyquinazolin-6-yl)-1-((S)-3,3-dimethyl-2-((S)-2-(methylamino)propanamido)butanoyl)pyrrolidine-2-carboxamide]
GI50 at 72 h [1]: > 10 µM | GI50 [2]: ≤ 100 nM | GI50 at 72 h [3]: > 10 µM
